Test results as given in patent US6355799B1, “Substituted benzene compounds, process for their preparation, and herbicidal and defoliant compositions containing them” (ISK Americas Incorporated, priority 1997, dated 2002).

How the values were obtained:
Format in all cases: in vivo
[1] = system: redroot pigweed (Amaranthus retroflexus, AMARE); test: Pre-emerge test, greenhouse herbicide activity screening; details: pre-emerge, rated 14 days after application, 0 = no damage, 100 = complete death
How it was run: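 Plants grown in 10 cm pots of sandy loam mix received acetone-dissolved compounds through a moving flat-fan nozzle. Doses ranged from 15 to 1000 g ai/ha. Pre-emerge pots were seeded one day earlier, post-emerge pots 8–21 days earlier. Fourteen days on, each pot was graded 0–100 for damage.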

[2] = system: field corn (Zea mays L., var. Dekalb 535, CORN); test: Pre-emerge test, crop safety; details: pre-emerge, rated 14 days after application, 0 = no damage, 100 = complete death
How it was run: (§1)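 Visual ratings on a 0-100 scale (0 no damage, 100 all plants dead) were taken at 14 days after treatment. Rates of 15-1000 g ai/ha in acetone, 187 l/ha, were sprayed onto soil one day after planting (pre-emerge) or onto 2-3 leaf plants with 0.25% v/v surfactant (post-emerge).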

[3] = system: upland rice (Oryza sp., var. Tebonnet, RICE); test: Pre-emerge test, crop safety; details: pre-emerge, rated 14 days after application, 0 = no damage, 100 = complete death
How it was run: as §1

[4] = system: barnyardgrass (Echinochloa crus-galli, ECHCG); test: Post-emerge test, greenhouse herbicide activity screening; details: phytotoxicity rating 0-100 (0 no damage, 100 complete death), 14 days after application
How it was run: (§2)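 Compounds in acetone were track-sprayed at 15-1000 g ai/ha (187 l/ha) on sandy loam pots: pre-emerge one day after seeding, post-emerge at 2-3 leaf stage with 0.25% v/v non-ionic surfactant. Phytotoxicity was rated 14 days later on a 0 (no damage) to 100 (complete death) scale.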

[5] = system: lambsquarters (Chenopodium album, CHEAL); test: as above; details: phytotoxicity rating 0-100 (0 no damage, 100 complete death), 14 days after application
How it was run: as §2

[6] = system: large crabgrass (Digitaria sanguinalis, DIGSA); test: as above; details: phytotoxicity rating 0-100 (0 no damage, 100 complete death), 14 days after application
How it was run: as §2

[7] = system: sicklepod (Cassia obtusifolia, CASOB); test: as above; details: phytotoxicity rating 0-100 (0 no damage, 100 complete death), 14 days after application
How it was run: as §2

[8] = system: common ragweed (Ambrosia artemisizfolia L., AMBEL); test: as above; details: phytotoxicity rating 0-100 (0 no damage, 100 complete death), 14 days after application
How it was run: as §2

[9] = system: ivyleaf morningglory (Ipomoea hederacea, IPOHE); test: as above; details: phytotoxicity rating 0-100 (0 no damage, 100 complete death), 14 days after application
How it was run: as §2

[10] = system: johnsongrass (Sorghum halepense, SORHA); test: as above; details: phytotoxicity rating 0-100 (0 no damage, 100 complete death), 14 days after application
How it was run: as §2

[11] = system: green foxtail (Setaria viridis, SETVI); test: as above; details: phytotoxicity rating 0-100 (0 no damage, 100 complete death), 14 days after application
How it was run: as §2

[12] = system: redroot pigweed (Amaranthus retroflexus, AMARE); test: as above; details: phytotoxicity rating 0-100 (0 no damage, 100 complete death), 14 days after application
How it was run: as §2

[13] = system: velvetleaf (Abutilon theophrasti, ABUTH); test: as above; details: phytotoxicity rating 0-100 (0 no damage, 100 complete death), 14 days after application
How it was run: as §2

[14] = system: field corn (Zea mays L., var. Dekalb 535, CORN); test: Post-emerge test, crop safety; details: phytotoxicity rating 0-100 (0 no damage, 100 complete death), 14 days after application
How it was run: (§3)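 Compounds in acetone were track-sprayed at 187 l/ha, 15–1000 g ai/ha, onto sandy loam pots. Pre-emerge seeds were sown one day before spraying, with surface watering afterwards. Post-emerge plants were at the 2–3 leaf stage and sprayed with 0.25% v/v non-ionic surfactant. Injury was rated 0–100 at 14 days.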

[15] = system: upland rice (Oryza sp., var. Tebonnet, RICE); test: Post-emerge test, crop safety; details: phytotoxicity rating 0-100 (0 no damage, 100 complete death), 14 days after application
How it was run: as §3

[16] = system: barnyardgrass (Echinochloa crus-galli, ECHCG); test: Pre-emerge test, greenhouse herbicide activity screening; details: pre-emerge, rated 14 days after application, 0 = no damage, 100 = complete death
How it was run: as §3

[17] = system: lambsquarters (Chenopodium album, CHEAL); test: as above; details: pre-emerge, rated 14 days after application, 0 = no damage, 100 = complete death
How it was run: as §3

[18] = system: large crabgrass (Digitaria sanguinalis, DIGSA); test: as above; details: pre-emerge, rated 14 days after application, 0 = no damage, 100 = complete death
How it was run: as §3

[19] = system: sicklepod (Cassia obtusifolia, CASOB); test: as above; details: pre-emerge, rated 14 days after application, 0 = no damage, 100 = complete death
How it was run: as §3

[20] = system: common ragweed (Ambrosia artemisizfolia L., AMBEL); test: as above; details: pre-emerge, rated 14 days after application, 0 = no damage, 100 = complete death
How it was run: as §3

[21] = system: ivyleaf morningglory (Ipomoea hederacea, IPOHE); test: as above; details: pre-emerge, rated 14 days after application, 0 = no damage, 100 = complete death
How it was run: as §3

[22] = system: johnsongrass (Sorghum halepense, SORHA); test: as above; details: pre-emerge, rated 14 days after application, 0 = no damage, 100 = complete death
How it was run: as §3

[23] = system: green foxtail (Setaria viridis, SETVI); test: as above; details: pre-emerge, rated 14 days after application, 0 = no damage, 100 = complete death
How it was run: as §3

[24] = system: velvetleaf (Abutilon theophrasti, ABUTH); test: as above; details: pre-emerge, rated 14 days after application, 0 = no damage, 100 = complete death
How it was run: as §3

COC(=O)C(=O)Nc1c(OC)c(Cl)cc(F)c1-n1c(=O)cc(C(F)(F)F)n(C)c1=O [2-15]
Pre-emerge Herbicidal Activity AMARE (phytotoxicity rating, scale 0-100) ([1]; 63 g ai/ha): 0 | Pre-emerge Herbicidal Activity AMARE (phytotoxicity rating, scale 0-100) ([1]; 250 g ai/ha): 80 | Pre-emerge crop damage CORN (phytotoxicity rating, scale 0-100) ([2]; 63 g ai/ha): 0 | Pre-emerge crop damage CORN (phytotoxicity rating, scale 0-100) ([2]; 250 g ai/ha): 0 | Pre-emerge crop damage RICE (phytotoxicity rating, scale 0-100) ([3]; 63 g ai/ha): 10 | Pre-emerge crop damage RICE (phytotoxicity rating, scale 0-100) ([3]; 250 g ai/ha): 0 | Post-emerge Herbicidal Activity ECHCG ([4]; 63 g ai/ha): 0 | Post-emerge Herbicidal Activity ECHCG ([4]; 250 g ai/ha): 0 | Post-emerge Herbicidal Activity CHEAL ([5]; 63 g ai/ha): 40 | Post-emerge Herbicidal Activity CHEAL ([5]; 250 g ai/ha): 60 | Post-emerge Herbicidal Activity DIGSA ([6]; 63 g ai/ha): 0 | Post-emerge Herbicidal Activity DIGSA ([6]; 250 g ai/ha): 0 | Post-emerge Herbicidal Activity CASOB ([7]; 63 g ai/ha): 10 | Post-emerge Herbicidal Activity CASOB ([7]; 250 g ai/ha): 10 | Post-emerge Herbicidal Activity AMBEL ([8]; 63 g ai/ha): 10 | Post-emerge Herbicidal Activity AMBEL ([8]; 250 g ai/ha): 40 | Post-emerge Herbicidal Activity IPOHE ([9]; 63 g ai/ha): 40 | Post-emerge Herbicidal Activity IPOHE ([9]; 250 g ai/ha): 90 | Post-emerge Herbicidal Activity SORHA ([10]; 63 g ai/ha): 0 | Post-emerge Herbicidal Activity SORHA ([10]; 250 g ai/ha): 0 | Post-emerge Herbicidal Activity SETVI ([11]; 63 g ai/ha): 0 | Post-emerge Herbicidal Activity SETVI ([11]; 250 g ai/ha): 0 | Post-emerge Herbicidal Activity AMARE ([12]; 63 g ai/ha): 0 | Post-emerge Herbicidal Activity AMARE ([12]; 250 g ai/ha): 20 | Post-emerge Herbicidal Activity ABUTH ([13]; 63 g ai/ha): 70 | Post-emerge Herbicidal Activity ABUTH ([13]; 250 g ai/ha): 90 | Post-emerge Herbicidal Activity CORN (crop damage) ([14]; 63 g ai/ha): 0 | Post-emerge Herbicidal Activity CORN (crop damage) ([14]; 250 g ai/ha): 0 | Post-emerge Herbicidal Activity RICE (crop damage) ([15]; 63 g ai/ha): 0 | Post-emerge Herbicidal Activity RICE (crop damage) ([15]; 250 g ai/ha): 0 | Pre-emerge Herbicidal Activity ECHCG (phytotoxicity rating, scale 0-100) ([16]; 63 g ai/ha): 0 | Pre-emerge Herbicidal Activity ECHCG (phytotoxicity rating, scale 0-100) ([16]; 250 g ai/ha): 0 | Pre-emerge Herbicidal Activity CHEAL (phytotoxicity rating, scale 0-100) ([17]; 63 g ai/ha): 60 | Pre-emerge Herbicidal Activity CHEAL (phytotoxicity rating, scale 0-100) ([17]; 250 g ai/ha): 40 | Pre-emerge Herbicidal Activity DIGSA (phytotoxicity rating, scale 0-100) ([18]; 63 g ai/ha): 0 | Pre-emerge Herbicidal Activity DIGSA (phytotoxicity rating, scale 0-100) ([18]; 250 g ai/ha): 0 | Pre-emerge Herbicidal Activity CASOB (phytotoxicity rating, scale 0-100) ([19]; 63 g ai/ha): 0 | Pre-emerge Herbicidal Activity CASOB (phytotoxicity rating, scale 0-100) ([19]; 250 g ai/ha): 0 | Pre-emerge Herbicidal Activity AMBEL (phytotoxicity rating, scale 0-100) ([20]; 63 g ai/ha): 0 | Pre-emerge Herbicidal Activity AMBEL (phytotoxicity rating, scale 0-100) ([20]; 250 g ai/ha): 0 | Pre-emerge Herbicidal Activity IPOHE (phytotoxicity rating, scale 0-100) ([21]; 63 g ai/ha): 20 | Pre-emerge Herbicidal Activity IPOHE (phytotoxicity rating, scale 0-100) ([21]; 250 g ai/ha): 30 | Pre-emerge Herbicidal Activity SORHA (phytotoxicity rating, scale 0-100) ([22]; 63 g ai/ha): 0 | Pre-emerge Herbicidal Activity SORHA (phytotoxicity rating, scale 0-100) ([22]; 250 g ai/ha): 0 | Pre-emerge Herbicidal Activity SETVI (phytotoxicity rating, scale 0-100) ([23]; 63 g ai/ha): 0 | Pre-emerge Herbicidal Activity SETVI (phytotoxicity rating, scale 0-100) ([23]; 250 g ai/ha): 0 | Pre-emerge Herbicidal Activity ABUTH (phytotoxicity rating, scale 0-100) ([24]; 63 g ai/ha): 20 | Pre-emerge Herbicidal Activity ABUTH (phytotoxicity rating, scale 0-100) ([24]; 250 g ai/ha): 90
